{
  "source": "paper PMC8457056",
  "about": "“Remodeling of the Fibrillation Pathway of α‐Synuclein by Interaction with Antimicrobial Peptide LL‐III” (Chemistry (Weinheim an Der Bergstrasse, Germany), 2021)",
  "key": {"[1]": {"assay": "circular dichroism spectroscopy of LL-III", "format": "physicochemical", "settings": "300 μM LL-III; 20 mM sodium acetate, pH 5.0, 25 °C; minimum around 195 nm", "description": "Figure 2 A) Binding isotherm obtained by means of steady‐state fluorescence anisotropy measurements. The experiment was performed by titrating a 4 μM solution of carboxyfluorescein‐labeled LL‐III with a solution of α‐Syn in the range 0–100 μM. The red line represents the best fit according to a 1 : 1 binding model.[29] The fluorophore was covalently attached to the N‐terminus of the peptide. B) Circular dichroism (CD) spectra of LL‐III (black solid line), α‐Syn (red solid line,) and of a mixture of LL‐III and α‐Syn (blue solid line) recorded at day 0. Shown are also spectra of the LL‐III/α‐Syn mixture recorded after 5 days (dashed blue line) and after 10 days (dotted blue lines). Here, the concentration of LL‐III was 300 μM, and the concentration of α‐Syn was 30 μM. […]\nNext, by means of circular dichroism (CD) spectroscopy, we explored the effect of LLPS formation and LL‐III partitioning on the conformation of the protein. […] In support of this conclusion, we note that the spectrum of the mixture is superimposable with the sum of the spectra of LL‐III and α‐Syn, which were recorded separately (Figure S6). The time evolution of the CD spectrum of the LL‐III/α‐Syn mixture was also recorded after 5 and 10 days (Figure 2B). […]\nµM) and following the anisotropy changes of the Trp residue. […] The anisotropy was evaluated at 354 nm which corresponds to the maximum of emission of the free peptide. […]"}, "[2]": {"assay": "net charge of LL-III", "format": "physicochemical"}},
  "data": [
    {"substance": "NH2-VNWKKIL GKIIKVVK -CONH2 [LL‐III]", "values": [
      {"measurement": "conformation (CD)", "setting": "[1]", "value": "random‐coiled conformation in solution"},
      {"measurement": "net charge at pH 5.0", "setting": "[2]; also at the lower pH of pH 5.0", "value": "+6"},
      {"measurement": "net charge at pH 7.4", "setting": "[2]; pH 7.4", "value": "+6"}
    ]}
  ]
}
